≈ marks a conversion by molar mass, not a printed value.
Experiments:
[1] = Solubility in water; assay type: physicochemical
Procedure: The solubility in water of compounds of the present invention was determined by shaking the compounds in water for one hour at room temperature followed by filtration and determination of the concentration of the compound in the filtrate by HPLC. […]

[2] = tested on: human lung and breast cancer cell lines; settings: cited from earlier work
[3] = tested on: human lung cancer tumour xenograft; settings: cited from earlier work
[4] = tested on: normal human endothelial cells; settings: cited from earlier work
[5] = tested on: human tumour cells; settings: nude mice transplanted with human tumour cells, also paclitaxel-resistant tumour cells; cited from earlier work

Row | SMILES | Solubility in water [1] | solubility at 1 h ([1]; thermodynamic from solid, shaken in water for one hour at room temperature, filtration, filtrate by HPLC) | solubility (in words) ([1]; water) | antiproliferative activity in vitro [2] | antitumour activity in the nude mouse model [3] | antiproliferative activity on normal human endothelial cells [4] | antitumour activity in vivo [5]
1 | COCCOCCOCCOCC(=O)OC[n+]1ccc(NC(=NC#N)NCCCCCCOc2ccc(Cl)cc2)cc1.[Cl-] [Example 8, 1-[2-(2-(2-Methoxyethoxy)-ethoxy)-ethoxy-acetoxymethyl]-4-[N′-cyano-N″-(6-(4-chlorophenoxy)-hexyl)-N-guanidino]-pyridinium chloride] | >50 mg/mL |  |  |  |  |  | 
2 | COCCOCCOCCOCCOC(=O)OC[n+]1ccc(NC(=NC#N)NCCCCCCOc2ccc(Cl)cc2)cc1.[Cl-] [Example 9, 1-[2-(2-(2-(2-Methoxyethoxy)-ethoxy)-ethoxy)-ethoxy-carbonyloxymethyl]-4-[N′-cyano-N″-(6-(4-chlorophenoxy)-hexyl)-N-guanidino]-pyridinium chloride] | >50 mg/mL |  |  |  |  |  | 
3 | N#CNC(=Nc1ccncc1)NCCCCCCOc1ccc(Cl)cc1 [N-(6-(4-chlorophenoxy)-hexyl)-N′-cyano-N″-(4-pyridyl)-guanidine] |  | 0.0002 mg/mL (≈ 0.538 µM) | for all practical purposes insoluble | high antiproliferative activity | potent antitumour activity | considerably less antiproliferative activity | substantial antitumour activity

From US6525077B2, “Cyanoguanidine prodrugs” (Leo Pharmaceutical Products Ltd. A/S, priority 2000, dated 2003)
